Assay results from patent publication US11752156B2, “Compositions and methods for treating hyperproliferative skin disorders” (Athenex HK Innovative Limited, priority 2018, dated 2023).
Values joined by “and” are separate entries in the source; they are usually repeats but may differ in a detail not shown here. Equal entries are not always repeated. Where two headings read alike, the source gives them in different places.

Experiments:
[1] = tested on: human keratinocyte cell line; assay: inhibition of human keratinocyte growth, individual dose response, 72 hours, MTT assay; type: cell-based; conditions: 72 hour exposure
Protocol: FIG. 4: Inhibition of human keratinocyte growth versus KX01 concentration (treatment duration: 72 hours; cell growth measured using the MTT assay). […] FIG. 5: Inhibition of human keratinocyte growth versus calcipotriol concentration (treatment duration: 72 hours; cell growth measured using the MTT assay). […] A human keratinocyte cell line was used in these studies.

[2] = tested on: squamous cell human carcinoma cell line (SCC A431); assay: MTT cell proliferation assay, 72 hours, dark or blue light, squamous cell carcinoma; type: cell-based; conditions: for inhibition at 0.005 µM / inhibition at 0.02 µM / inhibition at 0.08 µM / inhibition at 0.32 µM / inhibition at 1.28 µM: Homo sapiens, read-out: growth inhibition relative to untreated control
Protocol: The effects of combined treatment with KX01, a vitamin D derivative, and/or blue/UV light exposure were characterized using a cell proliferation assay. Cell proliferation was assessed by using an MTT assay. Cells were seeded in 96-well plate (3,000-5,000 cells per well) and treated with test compounds at varying concentrations (e.g. KX01: 5 to 80 nM; calcipotriol 5 to 1,280 nM) for 72 hours, either in the dark or exposed to blue light irradiation (for 2, 4, or 6 hours). To each well, 10 μl of 3-(4,5-dimethylthiazol-2-yl)-2,5-diphenyltetrazolium bromide (MTT) (RPI Corporation™) solution (5 mg/ml in PBS) was added and incubated at 37° C. for 3 hours. Next, 100 μl of 20% SDS was added to each well. After overnight incubation at 37° C., the absorbance in each well was measured at 570 nm in a microplate reader (Molecular Devices™). The cell growth curve and GI50s were calculate using GraphPad Prism™ 5 software. Similar studies were performed using a squamous cell carcinoma cell line (SCC A431). Tables 19 and 20 show the results of cell growth inhibition studies (expressed as a percentage relative to control cell growth) for treatment with either KX01 or calcipotriol in combination with exposure to blue light. […] The percentage of growth inhibition relative to untreated control is shown. Tables 21 to 24 show the effects of combined treatment with KX01, calcipotriol, and exposure to blue light at 0 hours, 2 hours, 4 hours, and 6 hours of light exposure (respectively) on human squamous cell carcinoma cells. Values are expressed as the percentage of growth inhibition relative to cells grown under control conditions (0 hours blue light, [KX01]=0, [calcipotriol]=0). The percentage of growth inhibition relative to an untreated control is shown. […] Results are shown below in Tables 31 and 32, which show results for KX01 and calcipotriol (respectively). Values are expressed as the percentage of growth inhibition relative to cells grown under control conditions (0 hours blue light, [KX01]=0, [calcipotriol]=0). […] Results are shown below in Tables 33 to Table 36, which show results from 0, 2, 4, and 6 hours of blue light exposure (respectively). Values are expressed as the percentage of growth inhibition relative to cells grown under control conditions (0 hours blue light, [KX01]=0, [calcipotriol]=0).

[3] = tested on: human keratinocytes in culture (cell line CCD-1106 KERTr); assay: cell viability / cell growth of human keratinocytes in culture, KX01, calcipotriol and fixed-ratio combinations; type: cell-based; design: cell growth (cell viability): unit not given here
From the text: Typical data from studies of the effects of compound KX01 provided in combination with calcipotriol on growth of human keratinocytes in culture (cell line CCD-1106 KERTr) are shown in FIGS. 1 to 3 and Tables 1 to 6. FIG. 1 and Tables 1 and 2 show the degree of growth inhibition found in a typical study performed with KX01 and calcipotriol at a 1:5 ratio.

[4] = tested on: CCD-1106 KERTr cells; assay: FITC annexin V / PI apoptosis assay by flow cytometry, 24 hours; type: cell-based, human; conditions: for late apoptic cells: 24 hours
Protocol: In addition to growth inhibition, Inventors also investigated the effect of KX01 on apoptosis in keratinocytes. CCD-1106 KERTr cells (1×10^6) were seeded in 60 mm dishes and treated with test compounds at varying concentrations (e.g. KX01: 20 to 500 nM; calcipotriol 50 to 1000 nM) for 24 hours. Cell apoptosis was assessed by using a FITC annexin V apoptosis detection kit (BD Biosciences™) according to manufacturer's instruction. Briefly, cells were collected in 1× binding buffer and incubated with fluorescein isothiocyanate (FITC)-conjugated annexin V and propidium iodide (PI) for 15 minutes at room temperature in the dark, followed by flow cytometry analysis using a LSRFortessa™ flow cytometer (BD Biosciences™).

`C=C1/C(=C\C=C2/CCC[C@]3(C)[C@@H]([C@H](C)/C=C/[C@@H](O)C4CC4)CC[C@@H]23)C[C@@H](O)C[C@@H]1O` [Calcipotriol, calcipotriol] was tested. Which IC50 [1] did it give?
Its IC50 is 0.0955 µM.

And the inhibition at 0.005 µM ([2]; A-431, 0 h, calcipotriol 5 nM, blue light 0 h)?
Its inhibition at 0.005 µM is 19%.

What about the inhibition at 0.02 µM ([2]; A-431, 0 h, calcipotriol 20 nM, blue light 0 h) of the same molecule?
The inhibition at 0.02 µM was 30%.

And the inhibition at 0.08 µM ([2]; A-431, 0 h, calcipotriol 80 nM, blue light 0 h)?
Its inhibition at 0.08 µM is 40%.

And the inhibition at 0.32 µM ([2]; A-431, 0 h, calcipotriol 320 nM, blue light 0 h)?
The inhibition at 0.32 µM was 41%.

And the inhibition at 1.28 µM ([2]; A-431, 0 h, calcipotriol 1,280 nM, blue light 0 h)?
The inhibition at 1.28 µM was 36%.

What about the inhibition at 0.005 µM ([2]; A-431, 2 h, calcipotriol 5 nM, blue light 2 h) of the same molecule?
The inhibition at 0.005 µM was 26%.

And the inhibition at 0.02 µM ([2]; A-431, 2 h, calcipotriol 20 nM, blue light 2 h)?
Its inhibition at 0.02 µM is 36%.

And the inhibition at 0.08 µM ([2]; A-431, 2 h, calcipotriol 80 nM, blue light 2 h)?
Its inhibition at 0.08 µM is 41%.

What about the inhibition at 0.32 µM ([2]; A-431, 2 h, calcipotriol 320 nM, blue light 2 h) of the same molecule?
Its inhibition at 0.32 µM is 35%.

What about the inhibition at 1.28 µM ([2]; A-431, 2 h, calcipotriol 1,280 nM, blue light 2 h) of the same molecule?
Its inhibition at 1.28 µM is 38%.

What about the inhibition at 0.005 µM ([2]; A-431, 4 h, calcipotriol 5 nM, blue light 4 h) of the same molecule?
The inhibition at 0.005 µM was 49%.

And the inhibition at 0.02 µM ([2]; A-431, 4 h, calcipotriol 20 nM, blue light 4 h)?
Its inhibition at 0.02 µM is 44%.

What about the inhibition at 0.08 µM ([2]; A-431, 4 h, calcipotriol 80 nM, blue light 4 h) of the same molecule?
Its inhibition at 0.08 µM is 47%.

What about the inhibition at 0.32 µM ([2]; A-431, 4 h, calcipotriol 320 nM, blue light 4 h) of the same molecule?
The inhibition at 0.32 µM was 49%.

What about the inhibition at 1.28 µM ([2]; A-431, 4 h, calcipotriol 1,280 nM, blue light 4 h) of the same molecule?
Its inhibition at 1.28 µM is 43%.

And the inhibition at 0.005 µM ([2]; A-431, 6 h, calcipotriol 5 nM, blue light 6 h)?
Its inhibition at 0.005 µM is 67%.

And the inhibition at 0.02 µM ([2]; A-431, 6 h, calcipotriol 20 nM, blue light 6 h)?
Its inhibition at 0.02 µM is 69%.

What about the inhibition at 0.08 µM ([2]; A-431, 6 h, calcipotriol 80 nM, blue light 6 h) of the same molecule?
Its inhibition at 0.08 µM is 67%.

What about the inhibition at 0.32 µM ([2]; A-431, 6 h, calcipotriol 320 nM, blue light 6 h) of the same molecule?
The inhibition at 0.32 µM was 67%.

And the inhibition at 1.28 µM ([2]; A-431, 6 h, calcipotriol 1,280 nM, blue light 6 h)?
The inhibition at 1.28 µM was 68%.

And the “growth inhibition relative to untreated control” value ([2]; calcipotriol 5 nM, blue light 0 h)?
Its value is 14%.

What about the “growth inhibition relative to untreated control” value ([2]; calcipotriol 5 nM, blue light 2 h) of the same molecule?
Its value is 27%.

What about the “growth inhibition relative to untreated control” value ([2]; calcipotriol 5 nM, blue light 4 h) of the same molecule?
Its value is 50%.

And the “growth inhibition relative to untreated control” value ([2]; calcipotriol 5 nM, blue light 6 h)?
Its value is 62%.

What about the “growth inhibition relative to untreated control” value ([2]; calcipotriol 20 nM, blue light 2 h) of the same molecule?
Its value is 39%.

And the “growth inhibition relative to untreated control” value ([2]; calcipotriol 20 nM, blue light 4 h)?
The value was 48%.

And the “growth inhibition relative to untreated control” value ([2]; calcipotriol 20 nM, blue light 6 h)?
Its value is 63%.

What about the “growth inhibition relative to untreated control” value ([2]; calcipotriol 80 nM, blue light 0 h) of the same molecule?
The value was 27%.

What about the “growth inhibition relative to untreated control” value ([2]; calcipotriol 80 nM, blue light 4 h) of the same molecule?
Its value is 50%.

And the “growth inhibition relative to untreated control” value ([2]; calcipotriol 80 nM, blue light 6 h)?
Its value is 61%.

What about the “growth inhibition relative to untreated control” value ([2]; calcipotriol 320 nM, blue light 0 h) of the same molecule?
Its value is 31%.

And the “growth inhibition relative to untreated control” value ([2]; calcipotriol 320 nM, blue light 2 h)?
Its value is 37%.

And the “growth inhibition relative to untreated control” value ([2]; calcipotriol 320 nM, blue light 4 h)?
The value was 51%.

What about the “growth inhibition relative to untreated control” value ([2]; calcipotriol 320 nM, blue light 6 h) of the same molecule?
The value was 60%.

What about the “growth inhibition relative to untreated control” value ([2]; calcipotriol 1,280 nM, blue light 0 h) of the same molecule?
The value was 28%.

What about the “growth inhibition relative to untreated control” value ([2]; calcipotriol 1,280 nM, blue light 2 h) of the same molecule?
Its value is 39%.

And the “growth inhibition relative to untreated control” value ([2]; calcipotriol 1,280 nM, blue light 4 h)?
The value was 48%.

And the “growth inhibition relative to untreated control” value ([2]; calcipotriol 1,280 nM, blue light 6 h)?
The value was 58% and 57%.

And the GI50 [3]?
Its GI50 is 0.31 µM and 0.339 µM.

What about the GI50 ([3]; Homo sapiens, CCD-1106) of the same molecule?
Its GI50 is 0.265 µM.

And the viability at 0.003 µM ([3]; Homo sapiens, CCD-1106, concentration 3 nM)?
The viability at 0.003 µM was 94%.

What about the viability at 0.009 µM ([3]; Homo sapiens, CCD-1106, concentration 9 nM) of the same molecule?
Its viability at 0.009 µM is 89.9%.

And the viability at 0.027 µM ([3]; Homo sapiens, CCD-1106, concentration 27 nM)?
Its viability at 0.027 µM is 70.5%.

And the viability at 0.081 µM ([3]; Homo sapiens, CCD-1106, concentration 81 nM)?
The viability at 0.081 µM was 49.4%.

What about the viability at 0.243 µM ([3]; Homo sapiens, CCD-1106, concentration 243 nM) of the same molecule?
Its viability at 0.243 µM is 47.3%.

And the viability at 0.729 µM ([3]; Homo sapiens, CCD-1106, concentration 729 nM)?
The viability at 0.729 µM was 47%.

And the viability at 2.187 µM ([3]; Homo sapiens, CCD-1106, concentration 2187 nM)?
Its viability at 2.187 µM is 44.8%.

What about the viability at 6.561 µM ([3]; Homo sapiens, CCD-1106, concentration 6561 nM) of the same molecule?
The viability at 6.561 µM was 19.2%.

What about the “cell growth (cell viability)” value ([3]; concentration 3 nM, 0.003 µM) of the same molecule?
Its value is 95.3 and 96.1.

And the “cell growth (cell viability)” value ([3]; concentration 9 nM, 0.009 µM)?
The value was 88.8 and 89.7.

What about the “cell growth (cell viability)” value ([3]; concentration 27 nM, 0.027 µM) of the same molecule?
Its value is 72.5 and 70.1.

And the “cell growth (cell viability)” value ([3]; concentration 81 nM, 0.081 µM)?
The value was 53.2 and 52.8.

And the “cell growth (cell viability)” value ([3]; concentration 243 nM, 0.243 µM)?
The value was 47.7 and 51.0.

And the “cell growth (cell viability)” value ([3]; concentration 729 nM, 0.729 µM)?
The value was 47.1 and 48.7.

And the “cell growth (cell viability)” value ([3]; concentration 2187 nM, 2.187 µM)?
The value was 46.7 and 48.3.

And the “cell growth (cell viability)” value ([3]; concentration 6561 nM, 6.561 µM)?
Its value is 25.2 and 26.5.

What about the “effect on apoptosis compared with control cells” value ([4]; 200 nm calcipotriol) of the same molecule?
Its value is “not distinguishable from that of control cells receiving no drug treatment”.

And the late apoptic cells ([4]; calcipotriol 50 nM)?
The late apoptic cells was 2.41%.

And the late apoptic cells ([4]; calcipotriol 200 nM)?
The late apoptic cells was 2.06%.

What about the late apoptic cells ([4]; calcipotriol 500 nM) of the same molecule?
Its late apoptic cells is 4.13%.

What about the late apoptic cells ([4]; calcipotriol 1,000 nM) of the same molecule?
Its late apoptic cells is 4.19%.
